We go through eight compounds from PubChem BioAssay (NCI).

The structures appear in SMILES notation.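 Briefly, cells in 96-well plates were exposed to five compound concentrations for 48 h, and endpoints were estimated by linear interpolation. GI50 marks 50% less growth. At the TGI there is no net growth.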 Some results are limits rather than exact numbers.

Test systems include 786-0 renal; HL-60(TB) leukemia; HOP-92 NSCLC; MCF7 breast; NCI-H522 lung; SF-295 CNS; SK-OV-3 ovarian; SN12C renal; SNB-75 CNS; SW-620 colon.
What all share (test): NCI anticancer screen, dose series, 48 h

Consider `COc1cc2c3c(n(CCCNCCNCCCN)c(=O)c2cc1OC)-c1cc2c(cc1C3=O)OCO2`, for which the GI50 is 3.24 µM in the assay with 786-0 renal; 6.11 µM in the assay with HL-60(TB) leukemia; 21 µM in the assay on HOP-92 NSCLC; 2.14 µM in the assay with MCF7 breast; 0.575 µM in the assay with NCI-H522 lung; 2.79 µM with SF-295 CNS. The GI50 was 8.08 µM in the assay on SK-OV-3 ovarian, 1.66 µM in the assay on SN12C renal, 10.3 µM in the assay on SNB-75 CNS and 2.03 µM in the assay with SW-620 colon. The TGI is 14.5 µM in the assay with 786-0 renal; 51.7 µM with HL-60(TB) leukemia; 72.2 µM with HOP-92 NSCLC; more than 100 µM in the assay with MCF7 breast; 2.86 µM in the assay with NCI-H522 lung; 17.4 µM in the assay with SF-295 CNS. The TGI is more than 100 µM with SK-OV-3 ovarian, 7.17 µM with SN12C renal, 26.7 µM in the assay with SNB-75 CNS and 10.7 µM in the assay on SW-620 colon.
Regarding `CC1(C)Cc2c(Br)c(Br)c(Br)c(OCC(O)CN3CCOCC3)c2O1` (stereo not given), the GI50 with 786-0 renal is 13 µM; in the assay with HL-60(TB) leukemia it was 3.72 µM; with HOP-92 NSCLC, 3.76 µM; with MCF7 breast it was 13.4 µM; in the assay on NCI-H522 lung it was 12.4 µM; in the assay on SF-295 CNS, 5.17 µM. The GI50 in the assay with SK-OV-3 ovarian was 15.9 µM; in the assay with SN12C renal it was 17.4 µM; in the assay with SNB-75 CNS it was 12.6 µM; in the assay with SW-620 colon it was 15.6 µM. The TGI was found to be 28.6 µM with 786-0 renal; 17.9 µM in the assay on HL-60(TB) leukemia; 21.5 µM in the assay with HOP-92 NSCLC; 29 µM in the assay with MCF7 breast; 26.7 µM with NCI-H522 lung; 20.3 µM in the assay with SF-295 CNS. Moreover, the TGI with SK-OV-3 ovarian was 29.6 µM; in the assay on SN12C renal, 33.5 µM; in the assay with SNB-75 CNS, 38.1 µM; in the assay on SW-620 colon, 29.8 µM.
Consider `Cc1cc2nc3c4cccc(O)c4n(CCN(C)C)c3nc2cc1C`, for which the GI50 in the assay on 786-0 renal was 3.88 µM; in the assay with HL-60(TB) leukemia it was 1.57 µM; in the assay on HOP-92 NSCLC, 1.57 µM; with MCF7 breast it was 1.36 µM; in the assay with NCI-H522 lung, 2.15 µM; in the assay with SF-295 CNS it was 3.58 µM. The GI50 with SK-OV-3 ovarian was 3.04 µM; in the assay with SN12C renal, 2.28 µM; with SNB-75 CNS, 1.18 µM; with SW-620 colon, 1.53 µM. For the same compound, the TGI in the assay on 786-0 renal was determined as 21.1 µM; in the assay on HL-60(TB) leukemia, 4.13 µM; in the assay with HOP-92 NSCLC it was 7.58 µM; with MCF7 breast, 5.08 µM; with NCI-H522 lung it was 6.49 µM; with SF-295 CNS, 14 µM. Besides, the TGI in the assay on SK-OV-3 ovarian was found to be 14.6 µM; in the assay on SN12C renal it was 13.8 µM; with SNB-75 CNS it was 11.1 µM; with SW-620 colon, 8.08 µM.
Turning to `CCOC(=O)C1=C(c2ccccc2)N(c2ccc(OC)cc2)[C@]2(C#N)C(O)=C(Cl)C(Cl)=C(O)[C@]12C#N`, the GI50 was 21.8 µM with 786-0 renal; 24.5 µM in the assay on HL-60(TB) leukemia; 0.545 µM in the assay with HOP-92 NSCLC; 18.7 µM with MCF7 breast; 21.3 µM in the assay with NCI-H522 lung; 25.9 µM with SF-295 CNS. Also, the GI50 in the assay with SK-OV-3 ovarian is 23.4 µM; in the assay with SN12C renal it was 18.8 µM; in the assay on SNB-75 CNS it was 18.4 µM; in the assay with SW-620 colon, 20.2 µM. Also, the TGI in the assay with 786-0 renal is 44.9 µM; with HL-60(TB) leukemia, 50.1 µM; with HOP-92 NSCLC, 23.3 µM; in the assay on MCF7 breast it was 36.1 µM; with NCI-H522 lung, 46.6 µM; with SF-295 CNS, 76.7 µM. For the same compound, the TGI in the assay with SK-OV-3 ovarian turned out to be 62.7 µM; with SN12C renal, 36.3 µM; in the assay on SNB-75 CNS, 36.7 µM; in the assay on SW-620 colon, 38.4 µM.
Turning to `COc1ccc(-c2ccccc2)cc1-c1c(Nc2cc(Cl)cc(Cl)c2O)c(=O)c1=O`, the GI50 with 786-0 renal was 1.84 µM; in the assay with HL-60(TB) leukemia, 1.11 µM; in the assay on HOP-92 NSCLC, 0.929 µM; in the assay with MCF7 breast it was 1.3 µM; in the assay with NCI-H522 lung it was 1.41 µM; in the assay with SF-295 CNS, 1.26 µM. For the same compound, the GI50 is 1.28 µM in the assay with SK-OV-3 ovarian, 1.48 µM in the assay on SN12C renal, 1.03 µM in the assay on SNB-75 CNS and 1.7 µM with SW-620 colon. The TGI with 786-0 renal is more than 50 µM; in the assay with HL-60(TB) leukemia it was 2.54 µM; with HOP-92 NSCLC it was 2.81 µM; in the assay on MCF7 breast, more than 50 µM; in the assay with NCI-H522 lung, more than 50 µM; with SF-295 CNS, 3.69 µM. Also, the TGI with SK-OV-3 ovarian was 4.25 µM; in the assay on SN12C renal it was more than 50 µM; in the assay on SNB-75 CNS, 3.61 µM; with SW-620 colon it was more than 50 µM.
Consider `CN(C)CCNC(=O)c1nc([N+](=O)[O-])cn1C`, for which the TGI with 786-0 renal, in the assay on HL-60(TB) leukemia, in the assay on HOP-92 NSCLC, in the assay with MCF7 breast, in the assay with NCI-H522 lung and in the assay with SF-295 CNS was more than 100 µM in each case. The TGI in the assay with SK-OV-3 ovarian, with SN12C renal, with SNB-75 CNS and in the assay on SW-620 colon was more than 100 µM in each case.
Take `COc1ccc(-n2c(C)nc3c(c(C)nn3-c3ccccc3)c2=O)cc1`: the GI50 in the assay with 786-0 renal was 0.0654 µM; in the assay on HL-60(TB) leukemia it was 0.0353 µM; in the assay with HOP-92 NSCLC, 0.433 µM; with MCF7 breast, 0.036 µM; in the assay on NCI-H522 lung it was 0.0375 µM; with SF-295 CNS it was 0.0594 µM. In addition, the GI50 with SK-OV-3 ovarian is 1.08 µM; with SN12C renal, 0.442 µM; in the assay with SNB-75 CNS, 0.0276 µM; in the assay on SW-620 colon it was 0.0415 µM. The TGI in the assay on 786-0 renal is more than 100 µM; in the assay with HL-60(TB) leukemia it was 0.22 µM; in the assay with HOP-92 NSCLC, 29.3 µM; with MCF7 breast, more than 100 µM; with NCI-H522 lung it was 9.1 µM; in the assay on SF-295 CNS, more than 100 µM. In addition, the TGI with SK-OV-3 ovarian, in the assay with SN12C renal, with SNB-75 CNS and with SW-620 colon was more than 100 µM throughout.
In the case of `Cc1cn2c(=O)n(c1=O)Cc1ccccc1C2`, the GI50 is 68.7 µM with 786-0 renal; more than 100 µM with HL-60(TB) leukemia; more than 100 µM with HOP-92 NSCLC; 35.1 µM with MCF7 breast; 43.4 µM in the assay on NCI-H522 lung; more than 100 µM in the assay with SF-295 CNS. For the same compound, the GI50 is 5.79 µM with SK-OV-3 ovarian, more than 100 µM in the assay with SN12C renal, 85.9 µM with SNB-75 CNS and more than 100 µM in the assay on SW-620 colon. The TGI in the assay with 786-0 renal, in the assay with HL-60(TB) leukemia, with HOP-92 NSCLC, with MCF7 breast, in the assay on NCI-H522 lung and with SF-295 CNS was more than 100 µM throughout. Moreover, the TGI with SK-OV-3 ovarian, in the assay with SN12C renal, with SNB-75 CNS and in the assay on SW-620 colon was more than 100 µM in each case.
